Data reported in patent US5658883A, “Biologically active TGF-β1 peptides” (Celtrix Pharmaceuticals, Inc., priority 1995, dated 1997).
Read-outs that look alike come from different tables or passages of the source. Blank lines part the entries; values can stand above or below the molecule they belong to. Bridge positions count the residues as written; N and C are the ends. Ends that are not written are not given here. Peptide text beside a SMILES is read from it. I, II: the chains in the order shown.

What was measured:
TGF-β receptor [1] = details: for competing against the binding of 125I-TGF-β1: at concentrations of up to 30 μM
Protocol: (§1) Rat muscle myoblasts (L6, American Type Culture Collection) were plated in 6-well culture plates and cultured in DMEM supplemented with 100 units/ml penicillin, 100 μg/ml streptomycin, 2 mM L-glutamine, 10% FBS until the cells were 70-90% confluent. Medium was aspirated from the wells; and 1 ml of ice cold 20 mM glycine, 135 mM NaCl, pH 3.0 was added to each well for 2 min. The buffer was aspirated and each well was rinsed 2 times with 1 ml of DMEM, 25 mM Hepes, pH 7.4, 0.1% BSA. […] Radiolabeled TGF-β samples (500 μl ) either without unlabeled TGF-β or with excess unlabeled TGF-β (20-25 nM) were prepared and added to other wells. After 1 hr incubation at room temperature, each well was rinsed 2 times with 1 ml of Hank's balanced saline solution, 0.1% BSA. To each well, 500 μl of 1% Triton X-100, 10% glycerol, 20 mM Hepes, pH 7.4, 0.01% BSA was added and incubated at 37° C. with rotation for 30 min to lyse the cells. Samples were transferred into gamma-counting vials and counted for 1 min each.

TGF-β receptor [2] = biological target: TGF-β receptor
Protocol: as §1

[3] = test system: Mink lung epithelial cells (Mv1Lu CCL64); assay: Mink lung epithelial cell proliferation inhibition assay; assay type: cell-based; details: for ED50 (half-maximal inhibition of cell proliferation): 4 days, acid phosphatase readout
Protocol: TGF-β is known to inhibit proliferation of mink lung epithelial cells. The mink lung epithelial cell assay was thus used to test the ability of the peptides to mimic the biological activity of TGF-β. Mink lung epithelial cells (ATCC, Rockville, Md., Mv1Lu CCL64) were plated at 0.5-1.0×10^6 cells/plate in 100 mm culture plates and grown in Eagle's minimal essential medium (MEM) supplemented with 50 units/ml penicillin, 50 μg/ml streptomycin, nonessential amino acids, L-glutamine, and 10% fetal bovine serum (FBS). Cells were passaged while the cell density was subconfluent. Cells were detached with trypsin, collected by centrifugation at 800×g for 2 min, and resuspended in the culture medium at 20,000 cells/ml. The cells were plated in 96-well microtiter plates at 1000 cells (50 μl)/well. Peptides TGF-β116-31, TGF-β116-47, TGF-β216-31, TGF-β216-47 in monomeric and dimeric forms were lyophilized in the presence of sterile bovine serum albumin (BSA) carrier. Samples (50 μl) of the peptides were dissolved in the cell culture medium and added to the wells in triplicate. Recombinant human TGF-β2 was used as the standard. The plates were incubated under a 5% CO2 /95% (V/V) air atmosphere at 37° C. for 4 days. The number of cells/well in this assay is proportional to the activity of the constitutively expressed enzyme, acid phosphatase. To measure acid phosphatase activity, the wells were rinsed with phosphate-buffered saline (PBS), filled with 100 μl of 0.1M sodium acetate, pH 5.5/0.1% Triton X-100/100 mM p-nitrophenyl phosphate, and the plates were incubated at 37° C. for 2 hr. Ten μl of 1.0N NaOH was added to each well, and after 20 min at room temperature, the absorbance at 405 nm was measured.

murine thymocytes = assay: Inhibition of murine thymocyte proliferation (3H-thymidine incorporation); assay type: cell-based, C3H/HeJ mice
Protocol: In order to determine the effect of the peptides on proliferation of cell types other than mink lung epithelial cells, murine thymocytes were exposed to the peptides. Proliferation was measured by determining the amount of ^3 H-thymidine incorporated into the thymocyte DNA in response to the peptides. The cell culture assay was performed as described by Ellingsworth et al., Cell. Immunol., 114:41-54 (1988). Single-cell suspensions of thymocytes were prepared from 4 to 8 week old C3H/HeJ mice and the cells were suspended in Eagle's MEM supplemented with 5% fetal calf serum (FCS), 100 units/ml penicillin, 100 μg/ml streptomycin, 2 mM L-glutamine and 50 μM β-mercaptoethanol to 6.66×10^6 cells/ml. The thymocytes were plated into 96-well microtiter plates at 10^6 cells/well (150 μl). The cells were activated with 1.0 μg/ml of phytohemagglutinin and 8 units/ml of interleukin-1 (IL-1) (Boehringer Mannheim, Indianapolis, Ind.). […] The cells were incubated at 37° C. for 72 hr in a humidified incubator in 5% CO2 -95% air atmosphere. The cells were pulsed with 0.5 μCi/well of ^3 H-thymidine 24 hours prior to cell harvest. The thymocytes were harvested onto glass fiber filters and dried. The amount of ^3 H-thymidine incorporation was determined by liquid scintillation counting method.

tumor cell proliferation = details: in vitro assays, generally observed; cited from earlier work
[4] = 25 pM 125I-TGF-β2, L6 cells, 1 hr room temperature
[5] = PHA and IL-1 activated thymocytes, 72 hr

- ED50 (competition against binding of 125I-TGF-β1) (TGF-β receptor [1]): 10000 to 15000 nM
- ED50 (competition against binding of 125I-TGF-β2) (TGF-β receptor [2]): 10000 to 15000 nM
Molecule: CC[C@H](C)[C@H](NC(=O)[C@H](Cc1ccc(O)cc1)NC(=O)[C@H](CC(C)C)NC(=O)[C@H](CCC(N)=O)NC(=O)[C@H](CCCNC(=N)N)NC(=O)[C@@H](NC(=O)[C@@H](N)CSSC[C@H](N)C(=O)N[C@H](C(=O)N[C@@H](CCCNC(=N)N)C(=O)N[C@@H](CCC(N)=O)C(=O)N[C@@H](CC(C)C)C(=O)N[C@@H](Cc1ccc(O)cc1)C(=O)N[C@H](C(=O)N[C@@H](CC(=O)O)C(=O)N[C@@H](Cc1ccccc1)C(=O)N[C@@H](CCCNC(=N)N)C(=O)N[C@@H](CCCCN)C(=O)N[C@@H](CC(=O)O)C(=O)N[C@@H](CC(C)C)C(=O)NCC(=O)N[C@@H](Cc1c[nH]c2ccccc12)C(=O)N[C@@H](CCCCN)C(=O)O)[C@@H](C)CC)C(C)C)C(C)C)C(=O)N[C@@H](CC(=O)O)C(=O)N[C@@H](Cc1ccccc1)C(=O)N[C@@H](CCCNC(=N)N)C(=O)N[C@@H](CCCCN)C(=O)N[C@@H](CC(=O)O)C(=O)N[C@@H](CC(C)C)C(=O)NCC(=O)N[C@@H](Cc1c[nH]c2ccccc12)C(=O)N[C@@H](CCCCN)C(=O)O [TGF-β116-31 dimer] (I: H-CVRQLYIDFRKDLGWK-OH / II: H-CVRQLYIDFRKDLGWK-OH; disulfide I:1-II:1)

- ED50 (competition against binding of 125I-TGF-β2) (TGF-β receptor [2]): 30000 nM
Molecule: CC[C@H](C)[C@H](NC(=O)[C@H](Cc1ccc(O)cc1)NC(=O)[C@H](CC(C)C)NC(=O)[C@@H]1CCCN1C(=O)[C@H](CCCNC(=N)N)NC(=O)[C@H](CC(C)C)NC(=O)[C@@H](N)CSSC[C@H](N)C(=O)N[C@@H](CC(C)C)C(=O)N[C@@H](CCCNC(=N)N)C(=O)N1CCC[C@H]1C(=O)N[C@@H](CC(C)C)C(=O)N[C@@H](Cc1ccc(O)cc1)C(=O)N[C@H](C(=O)N[C@@H](CC(=O)O)C(=O)N[C@@H](Cc1ccccc1)C(=O)N[C@@H](CCCCN)C(=O)N[C@@H](CCCNC(=N)N)C(=O)N[C@@H](CC(=O)O)C(=O)N[C@@H](CC(C)C)C(=O)NCC(=O)N[C@@H](Cc1c[nH]c2ccccc12)C(=O)N[C@@H](CCCCN)C(=O)O)[C@@H](C)CC)C(=O)N[C@@H](CC(=O)O)C(=O)N[C@@H](Cc1ccccc1)C(=O)N[C@@H](CCCCN)C(=O)N[C@@H](CCCNC(=N)N)C(=O)N[C@@H](CC(=O)O)C(=O)N[C@@H](CC(C)C)C(=O)NCC(=O)N[C@@H](Cc1c[nH]c2ccccc12)C(=O)N[C@@H](CCCCN)C(=O)O [TGF-β216-31 dimer] (I: H-CLRPLYIDFKRDLGWK-OH / II: H-CLRPLYIDFKRDLGWK-OH; disulfide I:1-II:1)

- ED50 (competition against binding of 125I-TGF-β2), in words (TGF-β receptor [2]; 25 pM 125I-TGF-β2, L6 cells): inactive
Molecule: CLRPLYIDFKRDLGWK [TGF-β216-31]
- ED50 / activity in words [3]: inactive
- activity in thymocyte proliferation assay (murine thymocytes): inactive

- ED50 (competition against binding of 125I-TGF-β2) (TGF-β receptor [2]; [4]): 30000 nM
- competing against the binding of 125I-TGF-β2 (TGF-β receptor [2]; at concentrations of up to 30 μM): either inactive or weakly active
Molecule: CLRPLYIDFKRDLGWKWIHEPKGYNANFCAGA [TGF-β216-47 monomer]
- ED50 / activity in words [3]: not active

- ED50 (competition against binding of 125I-TGF-β1), in words (TGF-β receptor [1]; 25 pM 125I-TGF-β1, L6 cells): not active
- competing against the binding of 125I-TGF-β1 (TGF-β receptor [1]): either inactive or weakly active
Molecule: CVRQLYIDFRKDLGWKWIHEPKGYHANFCLGP [TGF-β116-47 monomer]
- ED50 / activity in words [3]: some activity
- ED50 (half-maximal inhibition of cell proliferation) [3]: 1000 nM

Molecule: CVRQLYIDFRKDLGWKWIHEPKGYHANFCLGP [TGF-β116-47 trimer] (cysteine pairing not given here; also: trimer)
- ED50 (half-maximal inhibition of cell proliferation) [3]: 32.7 nM

Molecule: TGF-β
- concentration at which saturation is achieved (tumor cell proliferation): 10 ng/mL
- concentration for 50% inhibition of tumor cell proliferation (tumor cell proliferation): ~0.2 ng/mL

- ED50 (competition against binding of 125I-TGF-β1) (TGF-β receptor [1]; 25 pM 125I-TGF-β1, L6 cells, 1 hr room temperature): 0.01 to 0.03 nM
- Kd (TGF-β receptor [1]; read-out: apparent dissociation constant, estimated from competitive binding data, 125I-TGF-β1): 0.01 to 0.03 nM
Molecule: TGF-β1: full length transforming growth factor β1

Molecule: TGF-β2: full length transforming growth factor β2, used as the standard
- ED50 (inhibition of 3H-thymidine incorporation) (murine thymocytes; [5]): approximately 4 pM

- ED50 (competition against binding of 125I-TGF-β2) (TGF-β receptor [2]; [4]): 3000 nM
- Kd (TGF-β receptor [2]; read-out: apparent dissociation constant, estimated from competitive binding data, 125I-TGF-β2): ~3000 nM
B1: CLRPLYIDFKRDLGWKWIHEPKGYNANFCAGA [TGF-β216-47 dimer] (peptide)
chain 1: CLRPLYIDFKRDLGWKWIHEPKGYNANFCAGA
chain 2: B1 chain 1
modifications: disulfide (positions not given here); also: disulfide-bonded homodimer, Cys pairing not given here
- ED50 (half-maximal inhibition of cell proliferation) [3]: 4 to 14 nM
- fold more activity than dimerized TGF-β116-47 ([3]; from ED50): 11-38 fold
- ED50 (inhibition of thymocyte proliferation) (murine thymocytes; [5]): 57 nM

- ED50 (competition against binding of 125I-TGF-β1), in words (TGF-β receptor [1]; 25 pM 125I-TGF-β1, L6 cells): not active
- competing against the binding of 125I-TGF-β1 (TGF-β receptor [1]): either inactive or weakly active
B2: CVRQLYIDFRKDLGWKWIHEPKGYHANFCLGP [TGF-β116-47 dimer] (peptide)
chain 1: CVRQLYIDFRKDLGWKWIHEPKGYHANFCLGP
chain 2: B2 chain 1
modifications: disulfide (positions not given here); also: disulfide-bonded homodimer, Cys pairing not given here
